The target in this assay is T1, abc isoform of human TMEM16A channel expressed in CHO cells (Homo sapiens, UniProt Q5XXA6, DEL476-501).
T1 construct: expressed in transfected cells; host or cells: CHO cells, doxycycline-inducible expression under Blasticidin/Zeocin selection
T1 sequence (Q5XXA6 with tags, fused parts or gaps isoform Q5XXA6-5 DEL539-564): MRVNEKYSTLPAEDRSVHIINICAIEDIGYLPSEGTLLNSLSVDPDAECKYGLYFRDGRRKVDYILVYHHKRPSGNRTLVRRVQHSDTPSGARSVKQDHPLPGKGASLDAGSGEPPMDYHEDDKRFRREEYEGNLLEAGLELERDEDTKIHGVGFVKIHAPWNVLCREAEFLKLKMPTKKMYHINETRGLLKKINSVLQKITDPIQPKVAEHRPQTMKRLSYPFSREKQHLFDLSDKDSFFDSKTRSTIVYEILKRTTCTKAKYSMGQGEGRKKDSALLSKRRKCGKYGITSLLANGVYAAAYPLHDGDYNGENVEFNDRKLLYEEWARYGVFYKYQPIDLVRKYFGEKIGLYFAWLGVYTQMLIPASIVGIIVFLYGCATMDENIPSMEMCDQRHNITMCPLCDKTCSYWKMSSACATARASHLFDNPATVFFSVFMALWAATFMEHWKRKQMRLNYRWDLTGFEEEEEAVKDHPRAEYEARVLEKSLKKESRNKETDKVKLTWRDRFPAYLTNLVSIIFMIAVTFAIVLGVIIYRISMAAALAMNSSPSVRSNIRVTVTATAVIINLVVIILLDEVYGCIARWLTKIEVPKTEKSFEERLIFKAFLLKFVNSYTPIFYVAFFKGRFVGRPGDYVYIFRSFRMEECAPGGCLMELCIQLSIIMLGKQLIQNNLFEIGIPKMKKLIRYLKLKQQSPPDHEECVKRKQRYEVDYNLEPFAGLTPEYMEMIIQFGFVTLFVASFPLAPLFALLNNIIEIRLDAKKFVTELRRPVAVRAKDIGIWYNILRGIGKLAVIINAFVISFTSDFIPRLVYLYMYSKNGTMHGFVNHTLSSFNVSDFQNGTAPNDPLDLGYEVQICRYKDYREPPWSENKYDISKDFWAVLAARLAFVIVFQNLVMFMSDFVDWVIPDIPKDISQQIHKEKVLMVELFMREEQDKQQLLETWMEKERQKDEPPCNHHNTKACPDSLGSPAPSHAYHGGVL
The assay can be described thus: Automated patch clamping (QPatch) assay to measure TMEM16A activity in whole-cell. Type of assay: cell-based. As to conditions: for EC50: CHO cells expressing human TMEM16A (abc), whole-cell automated patch clamp, Hill fit, read-out: TMEM16A QPATCH assay EC50 V3 EC50; for Emax: CHO, read-out: TMEM16A QPATCH assay EC50 V3 Assay Window (% TMEM16A max activation); for Emax / TMEM16A QPATCH assay EC50 V3 Assay Window (% TMEM16A max activation): maximum current at highest dose relative to reference potentiator at maximal concentration (upper limit) and vehicle (lower limit). On the procedure: Automated Patch Clamping Assay to Measure TMEM16A Activity in Whole-Cell
Chinese hamster ovary cells (CHO) cells expressing abc isoform of human TMEM16A channel (Ref) were grown in vented cell-culture flasks (Corning) containing cell culture medium (1×F-12 Ham, 10% FBS, 1% Penicillin-streptomycin, 5 μg/mL Blasticidin S HCl, 400 μg/mL Zeocin), maintained at 37° C. in an incubator with 5% C02, 95% 02 and 100% humidity. The cells were passaged every 2-3 days at 80-90% confluence by aspirating the cell culture medium, washing twice with 10 mL D-PBS then incubating with 4 mL Trypsin-EDTA for no longer than 5 minutes. Trypsin was neutralized with the addition of 32 mL growth medium to the cell suspension, the cells were counted using a viable-cell counter (Vi-CELL; Beckmann-Coulter) and new flasks were seeded at a cell density of 0.01, 0.02, or 0.05×10^6 cells per cm2 for 3, 2, or 1 day(s) growth, respectively. Cell suspension was diluted in the new 175 cm2 flask with 50 mL of growth medium. Doxycycline was used to induce the expression of TMEM16A channel protein and was added directly to the culture flask 18-24 hours in advance of assay at a final concentration of 1 μg/mL. Induced cells were washed with D-PBS and detached from their culture flasks by adding 10 mL of Detachin and incubating for 10 minutes. Once detached, 5 mL of QPatch assay medium (1×CHO-S-SFM II (Sigma), 25 mM HEPES) was added and the resultant cell suspension counted using the Vi-CELL viable cell counter. The optimal cell density for this QPatch assay is 2-5×1 06 cells/mL; re-adjusted as necessary with QPatch assay medium.
The ion channel activity of TMEM16A (abc) expressed in CHO cells was assed using an automated patch clamp system (Qpatch, Sophion). These systems use planar patch-clamp technology to enable high-resistance, continuous whole-cell recordings from multiple cells in parallel, whilst maintaining each individual cell as an isolated experiment. First, each well was primed with intracellular and extracellular solutions described below. Cells were spun down, washed and then resuspended using extracellular solution. Intracellular solution: 130 mM N-methyl-D-glucamine, 10 mM EGTA, 20 mM CaCl2, 1 mM MgCl2, 10 mM HEPES 10, 10 mM BAPTA, 99 mM Sucrose, 2 mM Mg-ATP, pH 7.3, 320 mOsm Extracellular solution: 130 mM N-methyl-D-glucamine, 10 mM EGTA, 20 mM CaCl2, 1 mM MgCl2, 10 mM HEPES 10, 10 mM BAPTA, 99 mM Sucrose, 2 mM Mg-ATP, pH 7.3, 320 mOsm. Resuspended cells were then added to each well and suction was applied from the intracellular side in order to position a cell on the chip aperture, form a high resistance (GO) seal and achieve a whole-cell recording configuration. Following successful whole cell access, cell membranes were maintained at a voltage of −70 mV until the voltage protocol is applied. From this voltage, membranes were depolarized to +70 mV for 1500 ms, and then hyperpolarized to […] before being depolarized again from −90 to +70 mV in a continuous ramp waveform. At the end of the ramp, the membrane voltage is stepped back to −70 mV until the next waveform was applied. Compounds were dissolved at 10 mM in 100% DMSO and then diluted into extracellular solution (0.3% DMSO final) to the desired final concentration. The assay lower and upper limit were defined as follow, average amplitude (nA) of the last 3 sweeps in the vehicle addition of each cell was considered the basal current (lower limit); the average maximum current response in 3 cells for a reference potentiator at maximal concentration (upper limit). Current values for each compound concentration were then plotted against […]. EC50 curves are fitted to concentration-response data using curve-fitting functions (Hill fit) within the QPatch software. Curve fitting is constrained between the lowest concentration (vehicle-only addition) and the highest current value measured within the concentration range. […]
(In patch-clamp work, channel activity is measured electrically.)

By EC50 is commonly meant the concentration needed to bring the measured effect to its halfway point. For the compound `CCOC(=O)[C@@H](NC(=O)c1cnc(-c2cccc(-c3cc(C(=O)NC(CC)C(F)(F)F)[nH]n3)c2)o1)C(C)C` (stereo partly drawn) [Example 1.22, (2S)-Ethyl 3-Methyl-2-(2-(3-(5-((1,1,1-Trifluorobutan-2-Yl)Carbamoyl)-1H-Pyrazol-3-Yl)Phenyl)Oxazole-5-Carboxamido)Butanoate], the EC50 is 30 nM and the Emax stood at 119%.
Consider `CCC(CC)NC(=O)c1cnc(-c2cccc(-c3cc(C(=O)NCCOC(C)C)n[nH]3)c2)o1` [Example 3.9, 2-(3-(3-((2-Isopropoxyethyl)Carbamoyl)-1H-Pyrazol-5-Yl)Phenyl)-N-(Pentan-3-Yl)Oxazole-5-Carboxamide], for which the EC50 amounted to 500 nM and the Emax worked out at 96%.
For the compound `CCC(CC)NC(=O)c1cnc(-c2cccc(-c3cc(C(=O)N[C@@H](C)C(=O)OC)n[nH]3)c2)o1` [Example 3.42, (S)-Methyl 2-(5-(3-(5-(Pentan-3-Ylcarbamoyl)Oxazol-2-Yl)Phenyl)-1H-Pyrazole-3-Carboxamido)Propanoate], the EC50 came to 690 nM and the Emax amounted to 86%.
Take `CCC(CC)NC(=O)c1cnc(-c2cccc(-c3cc(C(=O)NC(C)(C4CC4)C(F)(F)F)n[nH]3)c2)o1` (stereo not drawn) [Example 3.8, 2-(3-(3-((2-Cyclopropyl-1,1,1-Trifluoropropan-2-Yl)Carbamoyl)-1H-Pyrazol-5-Yl)Phenyl)-N-(Pentan-3-Yl)Oxazole-5-Carboxamide]: the EC50 is 50 nM and the Emax worked out at 99%.
The like results for `CCC(CC)NC(=O)c1cnc(-c2cccc(-c3nc(C(=O)NC(CC)CC)n(CCOC)n3)c2)o1` [Example 15.1, 2-(3-(1-(2-Methoxyethyl)-5-(Pentan-3-Ylcarbamoyl)-1H-1,2,4-Triazol-3-Yl)Phenyl)-N-(Pentan-3-Yl)Oxazole-5-Carboxamide] were, in that order, 240 nM and 155%.
For `CCC(CC)NC(=O)c1cc(-c2cccc(-c3ncc(C(=O)N[C@H](C(=O)OC)C(C)C)o3)c2)[nH]n1` [Example 1.47, (S)-Methyl 3-Methyl-2-(2-(3-(3-(Pentan-3-Ylcarbamoyl)-1H-Pyrazol-5-yl)Phenyl)Oxazole-5-Carboxamido)Butanoate] the same measures were 150 nM and 75%.
Consider `COC(=O)[C@@H](NC(=O)c1cnc(-c2cccc(-c3cc(C(=O)NC(C4CC4)C4CC4)n(CC(O)C(F)(F)F)n3)c2)o1)C(C)C` (stereo partly drawn) [Example 6.1, (2S)-Methyl 2-(2-(3-(5-((Dicyclopropylmethyl)Carbamoyl)-1-(3,3,3-Trifluoro-2-Hydroxypropyl)-1H-Pyrazol-3-Yl)Phenyl)Oxazole-5-Carboxamido)-3-Methylbutanoate], for which the EC50 amounted to 120 nM and the Emax came to 220%.
As to `CCC(CC)NC(=O)c1cnc(-c2cccc(-c3cc(C(=O)N[C@@H](C)C4CC4)n(C)n3)c2)o1` [Example 6.2, (S)-2-(3-(5-((1-Cyclopropylethyl)Carbamoyl)-1-Methyl-1H-Pyrazol-3-Yl)Phenyl)-N-(Pentan-3-Yl)Oxazole-5-Carboxamide], the EC50 was 50 nM and the Emax came out at 131%.
For the compound `CCC(CC)NC(=O)c1cnc(-c2cccc(-c3cc(C(=O)NC(C)(C)C)n[nH]3)c2)o1` [Example 3.43, 2-(3-(3-(Tert-Butylcarbamoyl)-1 H-Pyrazol-5-Yl)Phenyl)-N-(Pentan-3-yl)Oxazole-5-Carboxamide], the EC50 was determined as 130 nM and the Emax was determined as 84%.
For `CCOC(=O)[C@@H](NC(=O)c1cnc(-c2cccc(-c3cc(C(=O)NC(C4CC4)C(F)(F)F)[nH]n3)c2)o1)C(C)C` (single isomer, unassigned) [Example 2.3 (ii)], the EC50 was 80 nM and the “TMEM16A QPATCH assay EC50 V3 Assay Window (% TMEM16A max activation)” value is on record as 97%.
For `C[C@@H](NC(=O)c1cnc(-c2cccc(-c3cc(C(=O)N[C@H](C)C4CC4)n(CCO)n3)c2)o1)C1CC1` [Example 10.1, N-((R)-1-Cyclopropylethyl)-2-(3-(5-(((R)-1-Cyclopropylethyl)Carbamoyl)-1-(2-Hydroxyethyl)-1H-Pyrazol-3-yl)Phenyl)Oxazole-5-Carboxamide], the EC50 was 320 nM and the Emax amounted to 101%.
Turning to `CCOC(=O)[C@@H](NC(=O)c1cnc(-c2cccc(-c3cc(C(=O)NC(C4CC4)C(F)(F)F)[nH]n3)c2)o1)C(C)C` (single isomer, unassigned) [Example 2.3 (i)], the EC50 was 30 nM and the Emax came out at 86%.
On to `C[C@H](NC(=O)c1cc(-c2cccc(-c3ncc(C(=O)NC(C4CC4)C4CC4)o3)c2)nn1CC(O)C(F)(F)F)C1CC1` (single isomer, unassigned) [Example 9.2 (i)], for which the EC50 was determined as 130 nM and the “TMEM16A QPATCH assay EC50 V3 Assay Window (% TMEM16A max activation)” value was found to be 115%.
With `CCC(CC)NC(=O)c1cnc(-c2cccc(-c3nc(C(=O)NC(CC)CC)n(CCN4Cc5ccccc5C4)n3)c2)o1` [Example 15.7, 2-(3-(1-(2-(Isoindolin-2-Yl)Ethyl)-5-(Pentan-3-Ylcarbamoyl)-1H-1,2,4-Triazol-3-Yl)Phenyl)-N-(Pentan-3-Yl)Oxazole-5-Carboxamide], the EC50 came out at 320 nM and the Emax worked out at 103%.
Turning to `COC(=O)[C@@H](NC(=O)c1cnc(-c2cccc(-c3nnc(C(=O)N[C@@H](C)C4CC4)[nH]3)c2)o1)C(C)(C)C` [Example 12.10, (S)-Methyl 2-(2-(3-(5-(((S)-1-Cyclopropylethyl)Carbamoyl)-4H-1,2,4-Triazol-3-Yl)Phenyl)Oxazole-5-Carboxamido)-3,3-Dimethylbutanoate], the EC50 amounted to 190 nM and the Emax was found to be 92%.

The values are drawn from US20220306617A1, “SUBSTITUTED 1,3-PHENYL HETEROARYL DERIVATIVES AND THEIR USE IN THE TREATMENT OF DISEASE” (NOVARTIS AG, priority 2019, published 2022).
